Data published in US20040082667A1, “Hangover treatment” (priority 2002, published 2004).

What was measured:
alcohol induced hangover = test: focus group: treating an alcohol induced hangover; type: in vivo, human; conditions: eight subjects (four male, four female); approximately 0.06 ounces powder in approximately 8 ounces of water or juice, oral, morning after an average of 9.5 alcoholic drinks; self-reported by each subject
Protocol: Each subject consumed an average of 9.5 alcoholic drinks in an average time period of 4.1 hours over the course of one evening. Each subject reported that they experienced the effects of an alcohol induced hangover the following morning. Upon rising, the subjects each ingested approximately 0.06 ounces of methylsulfonylmethane powder which had been mixed with approximately 8 ounces of water or juice. Each subject attested to the fact the effects of their alcohol induced hangover were relieved within less than one hour after ingesting the methylsulfonylmethane compound.

[1] = fraction of the toxicity of common table salt; general statement, no test described; cited from earlier work

CS(C)(=O)=O [methylsulfonylmethane]
time until effects of alcohol induced hangover were relieved after ingesting (alcohol induced hangover): less than one
toxicity level relative to common table salt [1]: 1/7
